Experiment [1] concerns the target T1, flTau aggregates (longest isoform of human Tau, 2N4R; 441 amino acids) (Homo sapiens, UniProt P10636).
T1 construct: 35 μM of recombinant full-length (fl)Tau in PBS were aggregated for 24 hours; made in house; host or cells: bacteria
The experiment in a line: Full-length Tau (flTau) disaggregation assay by Thioflavin T (ThT). Format: biochemical. As to conditions: 2 μM flTau aggregates, 160 to 0.04 μM compound, 30 minutes RT, ThT fluorescence. As to the method: Biological Assay Description Full-Length Tau (flTau) Disaggregation Assay by Thioflavin T (ThT)
The longest isoform of human Tau (2N4R; 441 amino acids) was expressed in bacteria and purified. For the Tau disaggregation assay by ThT, 35 μM of recombinant full-length (fl)Tau in PBS were aggregated for 24 hours at 37° C. in presence of 50 μM of heparin (Sigma-Aldrich) and 10 mM of DTT (Sigma-Aldrich) under shaking at 750 RPM. Compounds were dissolved in anhydrous dimethyl sulfoxide (DMSO, Sigma-Aldrich) to reach a concentration of 10 mM.
(§1) flTau aggregates and serial dilutions of compounds were mixed together in PBS (volume 50 μL) to a final concentration of 2 μM of flTau aggregates and from 160 to 0.04 μM of compounds. The mixture was incubated for 30 minutes at room temperature (RT), then 40 μL of this mixture were transferred into a black 384-well plate assay (Perkin-Elmer) and mixed with 10 μL of 100 μM ThT in 250 mM glycine (both from Sigma-Aldrich) in PBS. Fluorescence (relative fluorescence units; RFU) was measured in monoplicate or duplicate on a Tecan reader (excitation: 440 nm; emission: 485 nm). Percentage of flTau disaggregation was then calculated and the halfmaximal effective concentration (EC50) was determined using GraphPad Prism version 5 (GraphPad Software) assuming a one-binding site fitting model.

Experiment [2] concerns the target T2, K18 aggregates (Tau K18 fragment, amino acids 244 to 372 of human Tau441) (Homo sapiens, UniProt P10636).
T2 construct: encompassing amino acids 244 to 372 of the longest isoform (2N4R) of human Tau441; host or cells: bacteria
The experiment in a line: Tau K18 disaggregation assay by ThT. Format: biochemical. Conditions: 2 μM K18 aggregates, 160 to 0.04 μM compound, 30 minutes RT, ThT fluorescence; read-out: TauK18 disaggregation EC50. As to the method:
Tau K18 Disaggregation Assay by ThT
as §1, with “The Tau K18 fragment, encompassing amino acids 244 to 372 of the longest isoform (2N4R) of human Tau441, was expressed in bacteria and purified or bought from SignalChem. For the K18 disaggregation assay by ThT, 35 μM of recombinant K18 in PBS were aggregated for 24 hours at 37° C. in presence of 50 μM of heparin (Sigma-Aldrich) and 10 mM of DTT (Sigma-Aldrich) under shaking at 750 RPM. Compounds were dissolved in anhydrous dimethyl sulfoxide (DMSO, Sigma-Aldrich) to reach a concentration of 10 mM. K18 aggregates” for “flTau aggregates”, “of K18” for “of flTau”, “and half maximal” for “and the halfmaximal”

Experiment [3] concerns human neuroblastoma cell line overexpressing the full-length form of human Tau carrying the P301L mutation. The experiment in a line: Reduction of intracellular Tau aggregation (AlphaLISA). As to conditions: compound at 5 μM, 24 h; aggregated Tau normalized to total Tau, relative to DMSO-treated cells. Format: cell-based. As to the method:
Reduction of Intracellular Tau Aggregation
A human neuroblastoma cell line overexpressing the full-length form of human Tau carrying the P301L mutation was cultured in complete medium [DMEM-F12 4.5 g/L Glutamax (Invitrogen), 15% FBS (Biochrom), 1% Peni/Strep (Invitrogen) supplemented with 2.5 μg/ml of G418 (Sigma-Aldrich) selection antibiotic]. The day before the experiment 5×10^5 cells/well were plated in a 6 well plate in 3 mL of complete medium. The next day, cells were incubated with DMSO or a compound of the present invention at a 5 μM for additional 24 h at 37° C. After incubation, cells were trypsinized, resupsended in 100 μl of homogenization buffer [25 mM Tris-HCl pH 7.4, 150 mM NaCl, 1 mM EDTA, 1 mM EGTA containing phosphatase inhibitors (30 mM NaF, 0.2 mM Na3VO4, 1 nM Okadaic acid, 1 mM PMSF, 5 mM Na4P2O7) and protease inhibitor cocktail (Complete™, Roche)], and then physically lysed with three rapid cycles of freezing and thawing. Samples were then directly tested in the AlphaLISA assay.
Phosphorylated, aggregated, and total Tau were quantified by AlphaLisa using the following antibody pairs: • HT7-Acceptor beads+biotin (BT)-Tau13-Donor beads: Total Tau • HT7-Acceptor beads+biotin (BT)-HT7-Donor beads: Aggregated human Tau
The Tau13 (Abcam) was biotinylated using EZ-Link® NHS-PEO Solid Phase biotinylation kit (Thermo Scientific), while the HT7-biotin was from a commercial source (Thermo Scientific).
For each antibody pairs the concentration of acceptor beads and biotinylated antibodies was optimized. All samples were first tested in a dilution series in PBS in order to identify the linear range and optimal dilution for each sample and assay. For the final protocol, the following reagents were added in a 384-well white OptiPlate (Perkin Elmer): • 5 μL of test diluted sample • 20 μL of the mixture biotin-mAb acceptor beads at the following final concentrations: • HT7-BT at 1.25 nM in combination with HT7-Acc beads at 10 μg/ml • Tau13-BT at 5 nM in combination with HT7-Acc beads at 2.5 μg/ml
After incubation of this mixture at room temperature for 1 h, 25 μL of Streptavidin Donor beads (Perkin Elmer) at 25 μg/mL were added in the dark. Plates were analyzed after 30 min incubation using the EnSpire Alpha instrument and EnSpire Workstation version 3.00.
Data for aggregated Tau were normalized to total Tau and then expressed as percentage of the DMSO-treated cells.
For orientation: Bead proximity is the source of the signal in Alpha formats.

pEC50: −log10 of the molar value.

T2 sequence (P10636 561-689): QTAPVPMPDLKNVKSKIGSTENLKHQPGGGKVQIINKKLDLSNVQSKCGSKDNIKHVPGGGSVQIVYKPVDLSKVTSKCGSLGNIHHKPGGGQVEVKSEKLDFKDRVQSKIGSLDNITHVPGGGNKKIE
T1 sequence (P10636 1-441 isoform P10636-8): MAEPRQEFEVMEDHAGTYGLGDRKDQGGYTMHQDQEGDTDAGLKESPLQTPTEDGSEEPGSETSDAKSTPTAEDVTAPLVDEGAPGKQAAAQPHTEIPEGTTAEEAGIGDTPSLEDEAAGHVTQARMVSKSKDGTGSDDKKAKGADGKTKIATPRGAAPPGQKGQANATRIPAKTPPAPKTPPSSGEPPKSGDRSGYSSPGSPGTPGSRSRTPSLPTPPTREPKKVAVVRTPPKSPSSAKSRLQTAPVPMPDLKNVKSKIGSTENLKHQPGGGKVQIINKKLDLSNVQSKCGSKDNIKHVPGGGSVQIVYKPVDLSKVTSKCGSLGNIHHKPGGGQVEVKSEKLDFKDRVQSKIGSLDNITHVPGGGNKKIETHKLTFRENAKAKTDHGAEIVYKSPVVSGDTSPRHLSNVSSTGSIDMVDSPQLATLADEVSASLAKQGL

On to `CC(C)N1CCc2c(c3ccc(Nc4ccc5nc(N6CCOCC6)sc5c4)nc3n2C)C1` [Example 1], for which the pEC50 (usually −log10 of the EC50, conventionally taken in molar units) in experiment [1] was above 5.00; in experiment [2] it was 4.60 to 5.00. Also, in experiment [3], the “% Reduction of intracellular Tau aggregation” value (from here on “% Reduction”) is “+ (+ %25 < x < 10)”.

In the case of `CN(C)[C@@H]1CCc2c(c3ccc(Nc4ccc5sc(N6CCOCC6)nc5c4)nc3n2C)C1` [Example 2], the pEC50 in experiment [1] and in experiment [2] was above 5.00 throughout. Further, the “% Reduction” value in experiment [3] is reported as “+ (+ %25 < x < 10)”.

With `CN(C)[C@@H]1CCc2c(c3ccc(Nc4ccc5nc(N6CCOCC6)sc5c4)nc3n2C)C1` [Example 12], the pEC50 in experiment [1] and in experiment [2] was above 5.00 in each case. The “% Reduction” value in experiment [3] is on record as “++ (++ %50 < x < 25)”.

Source of the values: patent US12202840B2, “Compounds for the treatment or alleviation of disorders associated with Tau aggregates” (AC Immune SA, priority 2018, dated 2025).
